Data published in patent publication US20260097133A1, “EPIGENETIC EDITING TOOL FOR TARGETING HEPATITIS B VIRUS GENE” (priority 2023, published 2026).

Columns and labels:
[1] = test system: type D HBV core antigen (HBcAg) reporter cell line; test: sgRNA lentiviral library screening, HBcAg reporter cell line (NGS reads in GFP-negative cells); assay type: cell-based; conditions: sgRNA in GFP-negative cell population, day 14 after transfection of EPIREG
Description: (§1) In this example, the type D HBV X protein (HBx), core antigen (HBcAg), and surface antigen (HBsAg) reporter cell lines were used for library screening. First, a sgRNA cell library of type D HBV gene was constructed using a reporter cell line according to the method described in example 1. The sgRNA library was packaged into lentivirus to obtain a sgRNA lentiviral library (carrying red fluorescence), the reporter cell line was infected with the lentiviral library, and the red fluorescence was sorted to obtain the sgRNA cell library. Each cell in this sorted cell library integrated a single sgRNA in the library while the cell itself carried a reporter sequence (carrying green fluorescence). The EPIREG tool described in example 2 (the amino acid sequence of the tool was SEQ ID NO: 1194) (carrying blue fluorescence) was transfected and delivered into a cell library carrying both sgRNA and reporter sequences. Red/green/blue fluorescent triple-positive cells were sorted using a flow cytometer and cultured long-term. The EPIREG transfected into the cells could work together with the sgRNA to silence GFP in the reporter. On the day 14 after transfection, the GFP-negative cell population in the cell library was sorted, the genomic DNA of the negative cell population was extracted for NGS sequencing. The sgRNAs with higher sequencing reads in the negative cell population were compared using the untreated cell library as a control reference, so as to obtain the candidate sgRNAs that could play an editing role corresponding to each reporter, respectively (the schematic diagram of this screening scheme is shown in FIG. 6, and the analysis method is referenced to the literature DOI: 10.1186/s13059-014-0554-4). The functionally validated sgRNAs for each reporter cell line are summarized in the following table (arranged by the starting position of the target sequence of each sgRNA).

[2] = test system: type D HBV X protein (HBx) reporter cell line; test: sgRNA lentiviral library screening, HBx reporter cell line (NGS reads in GFP-negative cells); assay type: cell-based; conditions: sgRNA in GFP-negative cell population, day 14 after transfection of EPIREG
Description: as §1

Substance	Log2 FC [1]	Log2 FC [2]
39 (guide AACCCCCACTGGCTGGGGCT; listed as DNA, chemistry not fully specified) [compound 39]	3.4538	–
70 (guide ACAAGAGTTGCCTGAACTTT; listed as DNA, chemistry not fully specified) [compound 70]	2.5329	–
74 (guide ACAATGCTCAGGAGACTCTA; listed as DNA, chemistry not fully specified) [compound 74]	2.1202	–
81 (guide ACACGGTCCGGCAGATGAGA; listed as DNA, chemistry not fully specified) [compound 81]	2.0776	–
113 (guide ACGATGTATATTTGCGGGAG; listed as DNA, chemistry not fully specified) [compound 113]	2.0632	–
120 (guide ACTACTAGGTCTCTAGATGC; chemistry not given here) [compound 120]	2.9841	–
139 (guide AGACACCAAATACTCTATAA; listed as DNA, chemistry not fully specified) [compound 139]	2.8391	–
197 (guide AGGTCTGGAGCAAACATTAT; chemistry not given here) [compound 197]	–	3.6817
200 (guide AGGTGCGCCCCGTGGTCGGT; listed as DNA, chemistry not fully specified) [compound 200]	–	7.535
204 (guide AGGTTCCACGCACGCGCTGA; listed as DNA, chemistry not fully specified) [compound 204]	–	3.0712
225 (guide ATACCGCCTCAGCTCTGTAT; listed as DNA, chemistry not fully specified) [compound 225]	3.966	–
249 (guide ATGACCAAGCCCCAGCCAGT; listed as DNA, chemistry not fully specified) [compound 249]	2.8648	5.9752
254 (guide ATGGATACGATGTATATTTG; listed as DNA, chemistry not fully specified) [compound 254]	–	3.4564
257 (guide ATGGGCCATCAGCGCGTGCG; listed as DNA, chemistry not fully specified) [compound 257]	–	6.5564
305 (guide CACAGAAAGGCCTTGTAAGT; listed as DNA, chemistry not fully specified) [compound 305]	2.1583	4.9316
327 (guide CACTGGCTGGGGCTTGGTCA; listed as DNA, chemistry not fully specified) [compound 327]	1.8664	5.8386
335 (guide CAGATGAGAAGGCACAGACG; listed as DNA, chemistry not fully specified) [compound 335]	–	4.44
357 (guide CATGACCAAGCCCCAGCCAG; listed as DNA, chemistry not fully specified) [compound 357]	3.1523	6.2753
427 (guide CCGCAGGATTCAGCGCCGAC; listed as DNA, chemistry not fully specified) [compound 427]	3.4136	–
450 (guide CCTGCGGACGACCCTTCTCG; listed as DNA, chemistry not fully specified) [compound 450]	–	4.242

Substance	Log2 FC [1]	Log2 FC [2]
451 (guide CCTGCTGCGAGCAAAACAAG; listed as DNA, chemistry not fully specified) [compound 451]	2.9406	5.3958
484 (guide CGCCGACGGGACGTAAACAA; listed as DNA, chemistry not fully specified) [compound 484]	–	3.3079
496 (guide CGGCTAGGAGTTCCGCAGTA; listed as DNA, chemistry not fully specified) [compound 496]	2.9031	7.3529
498 (guide CGGGGAGTCCGCGTAAAGAG; listed as DNA, chemistry not fully specified) [compound 498]	–	2.939
539 (guide CTGACGCAACCCCCACTGGC; listed as DNA, chemistry not fully specified) [compound 539]	–	3.1536
553 (guide CTGGCCGTTGCCGGGCAACG; listed as DNA, chemistry not fully specified) [compound 553]	2.4462	3.9905
560 (guide CTGTGCCTTGGGTGGCTTTG; listed as DNA, chemistry not fully specified) [compound 560]	2.7695	–
628 (guide GAGGTGAAGCGAAGTGCACA; listed as DNA, chemistry not fully specified) [compound 628]	3.2225	–
650 (guide GATTGAATACATGCATACAA; listed as DNA, chemistry not fully specified) [compound 650]	–	3.726
735 (guide GGCACAGACCTGGCCGTTGC; listed as DNA, chemistry not fully specified) [compound 735]	–	4.08
750 (guide GGCTTCCCGATACAGAGCTG; listed as DNA, chemistry not fully specified) [compound 750]	4.6799	–
762 (guide GGGCAACGGGGTAAAGGTTC; listed as DNA, chemistry not fully specified) [compound 762]	–	4.8522
788 (guide GGGTTGCGTCAGCAAACACT; listed as DNA, chemistry not fully specified) [compound 788]	–	4.4031
841 (guide GTGAAAAAGTTGCATGGTGC; listed as DNA, chemistry not fully specified) [compound 841]	2.0112	–
872 (guide TAAAGACTGGGAGGAGTTGG; listed as DNA, chemistry not fully specified) [compound 872]	3.0933	–
981 (guide TCTAGAAGATCTCGTACTGA; listed as DNA, chemistry not fully specified) [compound 981]	2.1673	–
1033 (guide TGCGAGCAAAACAAGCGGCT; listed as DNA, chemistry not fully specified) [compound 1033]	–	3.1795
1068 (guide TGGTGAGGTGAACAATGCTC; listed as DNA, chemistry not fully specified) [compound 1068]	2.5736	–
1104 (guide TTCCCGATACAGAGCTGAGG; listed as DNA, chemistry not fully specified) [compound 1104]	3.9205	–
